By pIC50 is commonly meant the IC50 on a negative log10 scale, so that one unit is a factor of ten.

In one assay the target is CDK9/cyclin T (Homo sapiens, UniProt P50750). Nature of the assay: KinaseProfile radiometric protein kinase assay, CDK9/cyclin T. Type of assay: biochemical. Here is the method: (§1) The KinaseProfile radiometric protein kinase assay was used to evaluate the inhibitory activity of the compounds against CDK2/cyclin E, CDK4/cyclin D, CDK6/cyclin D, CDK7/cyclin H and CDK9/cyclin T.
CDK9/cyclin T, sequence (P50750 whole entry, the tested form may be a part): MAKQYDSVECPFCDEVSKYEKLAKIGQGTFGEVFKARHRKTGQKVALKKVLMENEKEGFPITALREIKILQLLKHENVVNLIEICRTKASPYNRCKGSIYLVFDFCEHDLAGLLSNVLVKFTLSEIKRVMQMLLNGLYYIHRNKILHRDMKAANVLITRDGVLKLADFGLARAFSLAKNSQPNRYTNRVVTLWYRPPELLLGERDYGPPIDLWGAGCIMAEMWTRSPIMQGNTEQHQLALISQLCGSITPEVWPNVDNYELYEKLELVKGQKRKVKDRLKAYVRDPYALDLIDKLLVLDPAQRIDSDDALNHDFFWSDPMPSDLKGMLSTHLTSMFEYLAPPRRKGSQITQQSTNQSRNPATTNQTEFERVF
CDK9/cyclin T, sequence (O60563 whole entry partner, the tested form may be a part): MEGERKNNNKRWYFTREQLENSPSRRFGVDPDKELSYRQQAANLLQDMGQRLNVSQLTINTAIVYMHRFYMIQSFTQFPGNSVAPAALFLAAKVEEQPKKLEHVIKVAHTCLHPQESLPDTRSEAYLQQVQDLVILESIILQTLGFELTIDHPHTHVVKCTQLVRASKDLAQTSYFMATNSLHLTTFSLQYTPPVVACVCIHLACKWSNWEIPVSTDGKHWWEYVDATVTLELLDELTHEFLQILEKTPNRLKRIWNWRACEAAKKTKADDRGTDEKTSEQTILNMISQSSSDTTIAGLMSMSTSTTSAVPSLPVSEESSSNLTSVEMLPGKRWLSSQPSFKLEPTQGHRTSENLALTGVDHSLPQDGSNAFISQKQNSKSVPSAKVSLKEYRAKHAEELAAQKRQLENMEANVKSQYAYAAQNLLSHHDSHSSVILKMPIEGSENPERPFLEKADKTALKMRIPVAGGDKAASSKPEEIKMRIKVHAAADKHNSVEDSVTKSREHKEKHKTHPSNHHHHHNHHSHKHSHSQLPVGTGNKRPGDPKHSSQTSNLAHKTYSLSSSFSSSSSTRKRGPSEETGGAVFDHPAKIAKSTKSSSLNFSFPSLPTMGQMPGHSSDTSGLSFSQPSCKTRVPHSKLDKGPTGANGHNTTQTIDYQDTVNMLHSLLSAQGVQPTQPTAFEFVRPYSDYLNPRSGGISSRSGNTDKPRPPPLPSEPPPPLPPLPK
(§2) The compounds were prepared in 100% DMSO at a final 50× stock concentration. The working stock solution was added as the first component to the assay wells. CDK2/cyclin E, CDK4/cyclin D, CDK6/cyclin D, CDK7/cyclin H, and CDK9/cyclin T were added in their respective kinase buffers: (CDK4: 8 mM MOPS pH 7.0, 0.2 mM EDTA, 0.03% BSA, 0.03% Tween 20, 20 mM DTT, and 0.2 mg/ml Rb fragment, 10 mM Magnesium acetate; CDK2, CDK6: 8 mM MOPS pH 7.0, 0.2 mM EDTA, 0.1 mg/mL histone H1, 10 mM Magnesium acetate; CDK7: 8 mM MOPS pH 7.0, 0.2 mM EDTA, 500 μM peptide, 10 mM Magnesium acetate; CDK9: 8 mM MOPS pH 7.0, 0.2 mM EDTA, 100 μM […], 10 mM Magnesium acetate) and [γ-^33 P-ATP] was included in the reaction mixture. The reaction was initiated by the addition of the Mg/ATP mixture and incubated at room temperature for 40 minutes. The reaction was terminated by the addition of 0.5% phosphoric acid. Then, 10 μL of the reaction mixture was spotted onto P30 filter pads, washed four times (1 minute each) with 0.425% phosphoric acid, followed by a single wash with methanol. The pads were then dried and counted. The data were recorded, inhibition rates were calculated, and IC50 values were determined accordingly. Table 2 summarizes the in vitro enzymatic inhibitory activity of the compounds of the present application.

A further assay addresses CDK4/cyclin D (Homo sapiens, UniProt P11802). Nature of the assay: KinaseProfile radiometric protein kinase assay, CDK4/cyclin D. The class given is biochemical. The procedure: as §1, §2
Assay [1] concerns 5-FU-induced diarrhea model. As to the kind of experiment: 5-FU-induced diarrhea model, 5-FU 1-day model. The class given is in vivo, Balb/c mice. As to conditions: 5-FU 175 mg/kg once a day, mice. An excerpt: (§3) The 5-FU-induced diarrhea model was used as an experimental model of the present invention to evaluate the in vivo activity of the compounds.
Balb/c mice (20-25 g, 7-8 weeks old, Jihui) were acclimated for one week and then randomly assigned to 3 groups (n=10 per group): control group, 5-FU group, and CDK inhibitor group. The control group received the same vehicle as the CDK inhibitor group by oral gavage, followed by injection of the same vehicle as the 5-FU group. The 5-FU group received the same vehicle by oral gavage as the CDK inhibitor group, followed by 5-FU injection. The CDK inhibitor group received oral administration of the CDK inhibitor, followed by 5-FU injection. From day 1 to day 7, the severity of diarrhea was assessed for each mouse according to the diarrhea scoring system.
(§4) The diarrhea scoring system was based on the method by Akinobu Kurita (Cancer Chemother Pharmacol 2000; 46:211-20), Grade 0: normal stool; Grade 1: mild diarrhea, slightly soft stool and wet stool; Grade 2: moderate diarrhea, loose stool with slight perianal staining; Grade 3: severe diarrhea, loose watery stool with severe perianal staining.
(§5) The diarrhea relief rate (%) was calculated as follows: […]

A further assay has as its target CDK7/cyclin H (Homo sapiens, UniProt P50613). As to the kind of experiment: KinaseProfile radiometric protein kinase assay, CDK7/cyclin H. Type of assay: biochemical. The procedure:
as §1, §2

Assay [2] relates to 5-FU-induced diarrhea model. Nature of the assay: 5-FU-induced diarrhea model, 5-FU 3-day model. The class given is in vivo, Balb/c mice. As to conditions: 5-FU 60 mg/kg once a day for 3 days, mice. Here is the method:
as §3
Balb/c mice (20-25 g, 7-8 weeks old, Jihui) were acclimated for one week and then randomly assigned to 3 groups (n=10 per group): control group, 5-FU group, and CDK inhibitor group. […] […] […] From Day 1 to Day 7, diarrhea severity was assessed daily for each mouse according to the diarrhea scoring system.
as §4, §5

Assay [3] deals with Irinotecan-induced diarrhea model. Nature of the assay: Irinotecan-induced diarrhea model. As to conditions: irinotecan 230 mg/kg once a day, 1 day, mice. Type of assay: in vivo, Balb/c mice. An excerpt: Irinotecan-induced diarrhea and/or constipation models were employed as additional in vivo experimental models to evaluate the activity of the compounds of the present application.
Balb/c mice (20-25 g, 7-8 weeks old, Jihui) were acclimated for one week and then randomly assigned to 3 groups (n=10 per group): control group, irinotecan group, and CDK inhibitor group. Control group: received the same vehicle as the CDK inhibitor group by oral gavage, followed by injection of the same vehicle as the irinotecan group; irinotecan group: received the same vehicle by oral gavage as the CDK inhibitor group, followed by injection of irinotecan; CDK inhibitor group: received oral administration of the CDK inhibitor, followed by injection of irinotecan.
In the irinotecan group, approximately 6 to 9 out of 10 mice developed diarrhea. From Day 1 to Day 7, the severity of diarrhea in each mouse was evaluated using the following scoring criteria:
The diarrhea scoring system was based on the method by Akinobu Kurita (Cancer Chemother Pharmacol 2000; 46:211-20), Grade 0: normal stool; Grade 1: mild diarrhea, slightly soft stool and wet stool; Grade 2: moderate diarrhea, loose stool with slight perianal staining; Grade 3: severe diarrhea, loose watery stool with severe perianal staining. Calculate the diarrhea Relief rate of compound treatment. Relief rate (%)=(diarrhea score of irinotecan group−diarrhea score of CDK inhibitor group)/diarrhea score of irinotecan group×100%.

The next assay has as its target CDK2/cyclin E (Homo sapiens, UniProt P24941). Nature of the assay: KinaseProfile radiometric protein kinase assay, CDK2/cyclin E. The class given is biochemical. The procedure:
as §1, §2

The mark [4] stands for this setting: 10 mg/kg oral twice a day for 3 days.
Setting [5] is: 100 mg/kg oral twice a day for 3 days.
Where [6] appears, read: 25 mg/kg oral, 6 hours before and 6 hours after irinotecan.
The mark [7] stands for this setting: 25 mg/kg oral, 6 hours before and 6 hours after 5-FU.
Setting [8] is: 10 mg/kg oral twice a day for 3.5 days.
The mark [9] stands for this setting: 50 mg/kg oral twice a day for 3 days.

pIC50: −log10 of the molar value. A value given as a limit tells only on which side of the number the result lay.

CDK7/cyclin H, sequence (P50613 whole entry): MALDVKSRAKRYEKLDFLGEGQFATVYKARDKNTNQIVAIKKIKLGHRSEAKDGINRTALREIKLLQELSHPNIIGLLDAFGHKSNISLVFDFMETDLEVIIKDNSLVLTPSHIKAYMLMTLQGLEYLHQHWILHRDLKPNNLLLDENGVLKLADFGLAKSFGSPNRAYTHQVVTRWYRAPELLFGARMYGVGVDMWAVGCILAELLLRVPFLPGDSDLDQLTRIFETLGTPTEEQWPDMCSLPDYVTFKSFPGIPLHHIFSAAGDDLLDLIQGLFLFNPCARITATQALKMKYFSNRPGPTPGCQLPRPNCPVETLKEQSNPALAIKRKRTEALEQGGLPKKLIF
CDK7/cyclin H, sequence (P51946 whole entry partner): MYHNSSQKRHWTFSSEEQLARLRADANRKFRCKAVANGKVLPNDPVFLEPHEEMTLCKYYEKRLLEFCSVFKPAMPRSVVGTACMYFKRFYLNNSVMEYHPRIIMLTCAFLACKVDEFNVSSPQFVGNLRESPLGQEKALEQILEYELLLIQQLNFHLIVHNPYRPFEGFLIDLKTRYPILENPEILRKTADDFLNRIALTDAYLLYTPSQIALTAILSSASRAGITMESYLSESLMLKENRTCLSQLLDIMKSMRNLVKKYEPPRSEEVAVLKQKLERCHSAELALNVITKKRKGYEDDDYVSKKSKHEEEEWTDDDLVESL
CDK7/cyclin H, sequence (P51948 whole entry partner): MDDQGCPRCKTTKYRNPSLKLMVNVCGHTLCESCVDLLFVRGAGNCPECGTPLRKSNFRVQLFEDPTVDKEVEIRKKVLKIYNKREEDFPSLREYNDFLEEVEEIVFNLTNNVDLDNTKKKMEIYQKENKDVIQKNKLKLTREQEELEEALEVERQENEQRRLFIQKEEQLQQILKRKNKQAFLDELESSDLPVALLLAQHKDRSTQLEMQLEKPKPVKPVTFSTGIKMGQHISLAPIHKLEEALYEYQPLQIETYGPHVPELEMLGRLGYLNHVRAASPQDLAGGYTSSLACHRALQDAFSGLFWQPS
CDK4/cyclin D, sequence (P11802 whole entry): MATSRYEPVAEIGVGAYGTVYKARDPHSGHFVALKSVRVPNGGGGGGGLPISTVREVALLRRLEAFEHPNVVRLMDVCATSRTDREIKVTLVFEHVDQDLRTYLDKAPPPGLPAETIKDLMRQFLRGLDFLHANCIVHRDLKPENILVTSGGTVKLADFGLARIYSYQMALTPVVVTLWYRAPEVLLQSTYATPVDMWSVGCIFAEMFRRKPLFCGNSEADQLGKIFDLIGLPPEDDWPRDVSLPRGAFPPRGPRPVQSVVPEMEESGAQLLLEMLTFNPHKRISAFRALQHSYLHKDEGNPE
CDK4/cyclin D, sequence (P30281 whole entry partner): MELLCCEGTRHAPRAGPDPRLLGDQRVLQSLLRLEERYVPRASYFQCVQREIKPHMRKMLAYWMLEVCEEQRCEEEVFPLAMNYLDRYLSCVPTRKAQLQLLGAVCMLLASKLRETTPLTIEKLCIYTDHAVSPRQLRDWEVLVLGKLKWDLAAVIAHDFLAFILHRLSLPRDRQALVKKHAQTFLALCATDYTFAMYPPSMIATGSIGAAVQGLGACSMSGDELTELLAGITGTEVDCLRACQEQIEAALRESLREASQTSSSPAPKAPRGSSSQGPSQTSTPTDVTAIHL

For the compound `CC(=O)c1c(C)c2cnc(Nc3ccc(N4CCN(S(=O)(=O)NCC(C)(C)CN)CC4)cn3)nc2n(C2CCCC2)c1=O` [Compound 6], the pIC50 on CDK9/cyclin T was below 6.00; against CDK4/cyclin D, above 7.30; at CDK7/cyclin H, below 5.52; against CDK2/cyclin E, below 5.00. The diarrhea relief rate in assay [1] (10 mg/kg oral, 10 hours before 5-FU and 2 hours after 5-FU) is 60%; in assay [1] (25 mg/kg oral, 8 hours before 5-FU and 4 hours after 5-FU), 75%; in assay [1] (50 mg/kg oral, 6 hours before and 6 hours after 5-FU), 80%; in assay [1] (100 mg/kg oral, 12 hours before 5-FU) it was 50%; in assay [2] (setting [4]) it was 30%; in assay [2] (20 mg/kg oral twice a day for 3.5 days) it was 50%. Moreover, the diarrhea relief rate in assay [2] (30 mg/kg oral twice a day for 3 days) stood at 50%; in assay [2] (50 mg/kg oral twice a day for 4 days) it was 75%; in assay [2] (80 mg/kg oral twice a day for 3.5 days), 60%; in assay [2] (setting [5]), 60%; in assay [3] (10 mg/kg oral, 4 hours before and 8 hours after irinotecan) it was 50%; in assay [3] (25 mg/kg oral, 4 hours before and 8 hours after irinotecan), 85%. Besides, the “diarrhea relief rate” value in assay [3] (setting [6]) turned out to be 60%; in assay [3] (100 mg/kg oral, 12 hours before irinotecan) it was 40%.
For `CC(=O)c1c(C)c2cnc(Nc3ccc(N4CCN(S(=O)(=O)NCC(C)CN)CC4)cn3)nc2n(C2CCCC2)c1=O` (stereo not drawn) [Compound 5], the negative-log IC50 (pIC50) on CDK9/cyclin T is below 5.52; on CDK4/cyclin D, above 7.00; on CDK7/cyclin H it was below 5.00; against CDK2/cyclin E, below 5.52. For the same compound, the diarrhea relief rate in assay [1] (10 mg/kg oral, 12 hours before 5-FU and 0 hours after 5-FU) is reported as 25%; in assay [1] (setting [7]), 40%; in assay [1] (50 mg/kg oral, 8 hours before 5-FU and 4 hours after 5-FU), 30%; in assay [1] (100 mg/kg oral, 4 hours before 5-FU and 8 hours after 5-FU), 40%; in assay [2] (setting [4]), 40%; in assay [2] (setting [8]), 75%. The diarrhea relief rate amounted to 30% in assay [2] (30 mg/kg oral twice a day for 4 days); 40% in assay [2] (setting [9]); 50% in assay [2] (60 mg/kg oral twice a day for 3.5 days); 50% in assay [2] (setting [5]); 25% in assay [3] (5 mg/kg oral, 4 hours before and 8 hours after irinotecan); 50% in assay [3] (setting [6]). In addition, the “diarrhea relief rate” value in assay [3] (50 mg/kg oral, 8 hours before irinotecan and 4 hours after irinotecan) was 50%; in assay [3] (100 mg/kg oral, 10 hours before irinotecan and 2 hours after irinotecan), 35%.
Regarding `CC(=O)c1c(C)c2cnc(Nc3ccc(N4CCN(S(=O)(=O)NCCCN)CC4)cn3)nc2n(C2CCCC2)c1=O` [Compound 4], the pIC50 at CDK9/cyclin T is below 5.52; against CDK4/cyclin D, above 7.30; against CDK7/cyclin H, below 5.52; against CDK2/cyclin E it was below 5.52. Moreover, the diarrhea relief rate in assay [1] (10 mg/kg oral, 8 hours before 5-FU and 4 hours after 5-FU) worked out at 25%; in assay [1] (setting [7]), 80%; in assay [1] (50 mg/kg oral, 12 hours before 5-FU) it was 70%; in assay [1] (10 0 mg/kg oral, 8 hours before 5-FU and 4 hours after 5-FU), 25%; in assay [2] (5 mg/kg oral twice a day for 3 days), 30%; in assay [2] (setting [8]), 50%. Besides, the diarrhea relief rate in assay [2] (10 mg/kg oral twice a day for 4 days) came out at 40%; in assay [2] (25 mg/kg oral twice a day for 3.5 days) it was 55%; in assay [2] (setting [9]), 60%; in assay [2] (setting [5]) it was 40%; in assay [3] (25 mg/kg oral, 2 hours before and 10 hours after irinotecan) it was 30%; in assay [3] (50 mg/kg oral, 4 hours before and 8 hours after irinotecan), 60%. In addition, the “diarrhea relief rate” value in assay [3] (50 mg/kg oral, 6 hours before and 6 hours after irinotecan) worked out at 60%; in assay [3] (150 mg/kg oral, 10 hours before irinotecan), 45%.

The values are drawn from patent US20260207604A1, “COMPOUND AND USE THEREOF” (ONQUALITY PHARMACEUTICALS CHINA LTD., priority 2022, published 2026).
